Laboratory results taken from patent publication US9550738B2, “Bicyclic compounds as kinases inhibitors” (HangzhouDeRenYuCheng Biotechnology Ltd, priority 2012, dated 2017).

Experiments:
[1] = biological target: T1, Btk (Homo sapiens, UniProt Q06187); assay: In vitro Btk competition binding assay (kinase-tagged T7 phage, liganded affinity beads, qPCR readout); parameters: made in house; host or cells: E. coli BL21-derived host (T7 phage display) or HEK-293 cells; details: 11-point 3-fold serial dilution, top concentration 10,000 nM, Hill slope -1
Experimental: An in vitro assay which determines the ability of a test compound to inhibit Btk.
Kinase-tagged T7 phage strains were prepared in an E. coli host derived from the BL21 strain. E. coli were grown to log-phase and infected with T7 phage and incubated with shaking at 32° C. until lysis. The lysates were centrifuged and filtered to remove cell debris. The remaining kinases were produced in HEK-293 cells and subsequently tagged with DNA for qPCR detection. Streptavidin-coated magnetic beads were treated with biotinylated small molecule ligands for 30 minutes at room temperature to generate affinity resins for kinase assays. The liganded beads were blocked with excess biotin and washed with blocking buffer (SeaBlock (Pierce), 1% BSA, 0.05% Tween 20, 1 mM DTT) to remove unbound ligand and to reduce non-specific binding. Binding reactions were assembled by combining kinases, liganded affinity beads, and test compounds in 1× binding buffer (20% SeaBlock, 0.17× PBS, 0.05% Tween 20, 6 mM DTT). All reactions were performed in polystyrene 96-well plates in a final volume of 0.135 ml. The assay plates were incubated at room temperature with shaking for 1 hour and the affinity beads were washed with wash buffer (1× PBS, 0.05% Tween 20). The beads were then re-suspended in elution buffer (1× PBS, 0.05% Tween 20, 0.5 μM non-biotinylated affinity ligand) and incubated at room temperature with shaking for 30 minutes. The kinase concentration in the eluates was measured by qPCR.
An 11-point 3-fold serial dilution of each test compound was prepared in 100% DMSO at 100× final test concentration and subsequently diluted to 1× in the assay (final DMSO concentration=1%). Kds were determined using a compound top concentration=10,000 nM. If the initial Kd determined was <0.5 nM (the lowest concentration tested), the measurement was repeated with a serial dilution starting at a lower top concentration.
Binding constants (Kds) were calculated with a standard dose-response curve using the Hill equation: Response=Background+(Signal−Background)/(1+(Kd^Hill Slope/Dose^Hill Slope)). The Hill Slope was set to −1. Curves were fitted using a non-linear least square fit with the Levenberg-Marquardt algorithm.
The following Table 1 lists compounds representative of the invention and their corresponding inhibitory activity against Btk.

[2] = biological target: T1, Btk; assay: Btk Ramos Cellular Assay (phosphorylation of the Btk substrate PLC gamma.2 after anti-IgM stimulation); type: cell-based; details: Ramos cells, 1 hour with compound at 1, 0.1, 0.01 or 0.001 μM, goat F(ab')2 Anti-Human IgM stimulation, blot for PLC gamma.2 phosphorylation; read-out: inhibition of Btk signaling in Ramos cellular assay, IC50
Experimental: Ramos cells were grown in suspension in T225 flasks, spun down, resuspended in 50 mL serum-free media and incubated for 1 hour. Compound was added to Ramos cells in serum free media to a final concentration of 1, 0.1, 0.01, or 0.001 μM. Ramos cells were incubated with compound for 1 hour, washed again and resuspended in 100 μL serum-free media. Cells were then stimulated with 1 μg of goat F(ab′)2 Anti-Human IgM and incubated on ice for 10 minutes to activate B cell receptor signaling pathways. After 10 minutes, the cells were washed once with PBS and then lysed on ice with Invitrogen Cell Extraction buffer. Sixteen μg total protein from lysates was loaded on gels and blots were probed for phosphorylation of the Btk substrate PLC gamma.2.

T1 sequence (Q06187 whole entry, species assumed): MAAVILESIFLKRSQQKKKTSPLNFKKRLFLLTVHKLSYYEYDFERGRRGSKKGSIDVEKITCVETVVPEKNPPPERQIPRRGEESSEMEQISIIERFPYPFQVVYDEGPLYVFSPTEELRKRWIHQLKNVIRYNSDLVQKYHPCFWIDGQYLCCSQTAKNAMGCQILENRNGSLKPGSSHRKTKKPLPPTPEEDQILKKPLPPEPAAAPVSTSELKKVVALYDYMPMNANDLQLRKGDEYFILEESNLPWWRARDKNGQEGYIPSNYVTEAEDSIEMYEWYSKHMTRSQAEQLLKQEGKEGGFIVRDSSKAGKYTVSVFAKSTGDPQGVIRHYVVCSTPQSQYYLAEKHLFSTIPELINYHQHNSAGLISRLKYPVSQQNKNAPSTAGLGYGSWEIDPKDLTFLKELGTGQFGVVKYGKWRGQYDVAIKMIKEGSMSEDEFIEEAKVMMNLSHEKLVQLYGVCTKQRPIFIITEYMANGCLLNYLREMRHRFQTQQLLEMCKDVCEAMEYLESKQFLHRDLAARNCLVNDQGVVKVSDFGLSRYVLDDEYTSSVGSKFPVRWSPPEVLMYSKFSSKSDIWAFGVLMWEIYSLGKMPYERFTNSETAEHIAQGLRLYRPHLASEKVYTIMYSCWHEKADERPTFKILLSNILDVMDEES

Row | Kd [1] [nM] | IC50 [2] [nM] | Compound
1 | < 100 | – | C=CC(=O)Nc1cc2c(Nc3ccc(Oc4ccccc4)cc3)ncnc2cc1O[C@H]1CCOC1 [Compound 38, (S)-N-(4-((4-phenoxyphenyl)amino)-7-((tetrahydrofuran-3-yl)oxy)quinazolin-6-yl)acrylamide]
2 | 2.3 | – | C=CC(=O)Nc1cc2c(Nc3ccc(Oc4ccccc4)cc3)ncnc2cc1OC [Compound 36, N-(7-methoxy-4-((4-phenoxyphenyl)amino)quinazolin-6-yl)acrylamide]
3 | 2.6 | < 100 | CCOc1cc2ncnc(Nc3ccc(Oc4ccccc4)cc3)c2cc1NC(=O)/C=C/CN(C)C [Compound 31, (E)-4-(dimethylamino)-N-(7-ethoxy-4-((4-phenoxyphenyl)amino)quinazolin-6-yl)but-2-enamide]
4 | 1.2 | – | C=CC(=O)Nc1cc2c(Nc3ccc(Oc4ccccc4)cc3)ncnc2cc1OCC [Compound 37, N-(7-ethoxy-4-(4-phenoxyphenylamino)quinazolin-6-yl)acrylamide]
5 | < 100 | – | CN(C)C/C=C/C(=O)Nc1cc2c(Nc3ccc(Oc4ccccc4)cc3)ncnc2cc1O[C@H]1CCOC1 [Compound 35, (S,E)-4-(dimethylamino)-N-(4-((4-phenoxyphenyl)amino)-7-((tetrahydrofuran-3-yl)oxy)quinazolin-6-yl)but-2-enamide]
6 | 2.2 | < 100 | COc1cc2ncnc(Nc3ccc(Oc4ccccc4)cc3)c2cc1NC(=O)/C=C/CN(C)C [Compound 27, (E)-4-(dimethylamino)-N-(7-methoxy-4-((4-phenoxyphenyl)amino)quinazolin-6-yl)but-2-enamide]
